Biological target: T1, α-amylase
T1 construct: PDB 4W93 was used for docking only
Assay: iodine-starch absorbance assay, […] nm
Format: biochemical
Settings: soluble starch substrate, 0.1 M sodium phosphate buffer, 37 °C, 15 min preincubation; read-out: α-Amylase inhibition activity IC50 (μg/mL) / Pahang (PFP)

For COc1cc2ccc(=O)oc2cc1O [compound 1, scopoletin], which IC50 is on record?
The IC50 was 52 ± 130 nM.
